Read-outs that look alike come from different tables or passages of the source. Ends that are not written are not given here. Peptide text beside a SMILES is read from it. * marks the point of attachment. RhodamineB = CCN(CC)c1ccc2c(-c3ccccc3C(=O)*)c3ccc(=[N+](CC)CC)cc-3oc2c1
What was measured:
HaCaT cells [1] = assay: Nitric oxide assay (nitrite, Griess reagent); type: cell-based, human; conditions: 1 µg/mL LTA-stimulated HaCaT, 10 µg/mL agent, 24 h
Procedure: The nitric oxide assay was performed as described previously and the quantity of nitrite in the culture medium was measured as an indicator of NO production. Amounts of nitrite, a stable metabolite of NO, were measured using the Griess reagent (1% sulfanilamide and 0.1% naphthylethylenediamine dihydrochloride in 2.5% phosphoric acid). Briefly, 5 × 10^4 HaCaT cells were seeded in transparent 96-well plates and cultured until 85% confluence was reached. After that, cells were washed with PBS, and agents at final concentrations of 2, 5 and 10 µg/mL were added to each well. Simultaneously, keratinocytes were stimulated with 1 µg/mL LPS (E. coli 026:B6), 1 µg/mL LTA (from Staphylococcus aureus) or heat-inactivated suspensions of E. coli or S. aureus (~ 10^6 CFU/mL) and incubated in serum-free medium for 24 h. Next, 50 µL of cell culture medium was mixed with 50 µL of Griess reagent, incubated at room temperature for 15 min, and the absorbance at 540 nm was measured in a microplate reader. Fresh culture medium was used as a blank in every experiment.

HaCaT cells [2] = assay: ROS formation (DFCH-DA fluorescence); type: cell-based, human; conditions: 1 µg/mL LPS-stimulated HaCaT, 10 µg/mL agent, 24 h
Procedure: The generation of reactive oxygen species from stimulated HaCaT cells was measured using 2′,7′-dichlorofluorescein diacetate (DFCH-DA) as the fluorescent probe. For this purpose, 5 × 10^4 of HaCaT cells, cultured until ~ 85% confluence and incubated simultaneously with peptides or their magnetic derivatives at concentrations of 2, 5 and 10 µg/mL and with 1 µg/mL LPS/LTA or heat-inactivated bacteria for 24 h. Next, cells were washed twice with PBS, and DFCH-DA in PBS at the concentration of 20 µM was added. Fluorescence was measured for 90 min immediately after the addition of the dye at excitation/emission wavelengths of 488/535 nm.

E. coli RS218 = assay: Killing assay (CFU counting); type: cell-based, Escherichia coli; conditions: E. coli RS218, 1 h, doses 2-10 µg/mL, dose-dependent
Procedure: (§1) To assess the bactericidal activity of PBP10-derived peptides and PBP10-containing nanosystems against E. coli and S. aureus bacterial strains, a killing assay based on counting colony forming units (CFU) was performed. For this purpose, E. coli and S. aureus strains were grown to mid-log phase at 37 °C, re-suspended in PBS, brought to 10^8 CFU/ml (which corresponds to 0.5 OD at a wavelength 600 nm) and diluted 1:100 to obtain sample containing approx. 10^6 CFU/mL. Bacteria were then added to PBS containing different concentrations of PBP10, RhB-PBP10 and RhB-PBP10-Cys and their nanosystems at doses of 2, 5 and 10 µg/mL. After 1 h of incubation at 37 °C, the plates were transferred to ice and suspensions were diluted 10- to 1000-fold in PBS. Then, 10 μL aliquots were spotted on agar plates for overnight culture at 37 °C in order to determine CFUs.

S. aureus A1 = assay: Killing assay (CFU counting); type: cell-based, Staphylococcus aureus; conditions: S. aureus A1, 1 h, doses 2-10 µg/mL, dose-dependent
Procedure: as §1

[3] = MTT viability / metabolic activity assay; type: cell-based, human; conditions: human
Procedure: (§2) The viability and metabolic activity of cells were measured using a microculture tetrazolium test (MTT; 3-(4,5-dimethylthiazol-2-yl)-2,5-diphenyltetrazolium bromide) as described previously. HaCaT cells were seeded at a density of 5 × 10^4 cells/well in transparent 96-well plates and cultured until ~ 85% confluence; after that medium was replaced with serum-free medium and cells were serum starved for another 12 h. To determine the non-toxic concentrations, the peptides and their magnetic derivatives in concentrations ranging from 1 to 50 µg/mL were added to each well and incubated for 24 h at 37 °C under 5% CO2. The optical density at 490 nm was assessed after 2 h incubation of plates with MTT solution (5 mg/mL) and the addition of formazan salt in dimethyl sulfoxide (DMSO). The absorbance value obtained in cultures of control cells (with solvents alone) was taken as 100%. The average of all the experiments is shown as cell viability percentage in comparison to the control.

[4] = Fluorescence of unbound peptide after magnetic separation; type: physicochemical; conditions: fluorescence relative to 1 mg/mL free peptide
Procedure: PBP10-containing nanosystems were obtained by non-covalent bonding including electrostatic interactions or chemisorption of thiol groups to the gold surface. Nanoparticles (MNP@NH2 or MNP@Au) were dispersed in PBS to obtain solutions of 10 mg/mL concentration. Then nanoparticles were diluted to the concentration of 1 mg/mL and were mixed with the appropriate amount (1:1 volume ratio) of PBP peptide or PBP modified by cysteine and rhodamine (1 mg/mL solutions in PBS buffer). Prepared solutions were incubated for 2 days (nucleation) and used for further investigations. In order to avoid the loss of agents during the preparation process, no further purification of nanosystems was performed. To evaluate the efficiency of peptide attachment, fluorescence of unbound PBP10 peptides in solutions after magnetic separation of nanosystems was measured.

HaCaT cells [5] = assay: IL-8 release (ELISA); type: cell-based, human; conditions: 24 h
Procedure: In order to assess release of interleukin-8 (IL-8) from stimulated keratinocytes, 5 × 10^4 HaCaT cells were treated with agents at concentrations of 2, 5 and 10 µg/mL and stimulated with 1 µg/mL LPS/LTA. The medium from LPS/LTA-treated cells was harvested after 24 h of incubation and the level of IL-8 was evaluated using an IL-8 Human ELISA Kit (Thermo Fisher Scientific).

A549 cells = assay: Cell stiffness by atomic force microscopy (AFM) indentation; type: cell-based, human; conditions: 1 µg/mL LPS 24 h, agent 5 µg/mL
Procedure: The stiffness of cells after 24 h stimulation with 1 µg/mL LPS was measured by indentation using atomic force microscopy (Nanowizard 4 Bioscience AFM, JPK Instruments, Germany). Adenocarcinomic human alveolar basal epithelial cells (A549 ATCC® CCL-185™) were cultured in high-glucose DMEM supplemented with 10% FBS at 37 °C with 5% CO2, placed on Ø 35 mm Petri dishes and allowed to attach and spread for 24 h before simultaneous stimulation with 1 µg/mL LPS (E. coli 026:B6) and treatment with 5 µg/mL of PBP10 or PBP10-based nanosystems. Immediately before the experiment, cells were placed in a CO2-independent buffer (Thermo Fisher Scientific, USA) to prevent changes in pH of the cellular environment during analysis. Elasticity measurements were taken with AFM working in force spectroscopy mode in liquid conditions, and cantilevers (ORC8, Bruker) with a spring constant of 0.1 N/m were used. From each tested cell, up to 64 force-indentation curves were collected in a grid of 8 × 8 pixels corresponding to a scan area of 10 × 10 µm with a maximal force of 2 nN. For indentation measurements, more than 1100 force-distance curves were recorded for each group from at least ten different cells. To determine the apparent Young’s modulus of different cells, force-indentation curves were fit to the Hertz contact model.

HaCaT cells [6] = assay: MTT viability / metabolic activity assay; type: cell-based, human; conditions: 24 h
Procedure: as §2

CCN(CC)c1ccc2c(-c3ccccc3C(=O)N[C@@H](CCC(N)=O)C(=O)N[C@@H](CCCNC(=N)N)C(=O)N[C@@H](CC(C)C)C(=O)N[C@@H](Cc3ccccc3)C(=O)N[C@@H](CCC(N)=O)C(=O)N[C@H](C(=O)N[C@@H](CCCCN)C(=O)NCC(=O)N[C@@H](CCCNC(=N)N)C(=O)N[C@@H](CCCNC(=N)N)C(=O)O)C(C)C)c3ccc(=[N+](CC)CC)cc-3oc2c1 [RhB-PBP10, rhodamine B-QRLFQVKGRR] (RhodamineB-QRLFQVKGRR-OH; N-terminus and C-terminus assumed)
NO production (% of untreated stimulated control) (HaCaT cells [1]): 63.16 ± 14.01%
ROS production (% of untreated stimulated control) (HaCaT cells [2]): 30.33 ± 3.31%
decrease of bacterial viability (E. coli RS218): more than 95%
decrease of bacterial viability (S. aureus A1): more than 95%

CCN(CC)c1ccc2c(-c3ccccc3C(=O)N[C@@H](CCC(N)=O)C(=O)N[C@@H](CCCNC(=N)N)C(=O)N[C@@H](CC(C)C)C(=O)N[C@@H](Cc3ccccc3)C(=O)N[C@@H](CCC(N)=O)C(=O)N[C@H](C(=O)N[C@@H](CCCCN)C(=O)NCC(=O)N[C@@H](CCCNC(=N)N)C(=O)N[C@@H](CCCNC(=N)N)C(=O)N[C@@H](CS)C(=O)O)C(C)C)c3ccc(=[N+](CC)CC)cc-3oc2c1 [RhB-PBP10-Cys] (RhodamineB-QRLFQVKGRRC-OH; N-terminus and C-terminus assumed)
viability at 24 h, 10 µg/mL ([3]; 10 µg/mL, 24 h, control = 100%, read-out: viability of HaCaT cells): 80 ± 6.6%
% of remaining peptide (unbound) in solution after magnetic separation [4]: ≤ 5%
decrease of bacterial viability (E. coli RS218): more than 95%
decrease of bacterial viability (S. aureus A1): more than 95%

Lipopolysaccharide from Escherichia coli O26:B6 [LPS]
IL-8 level (HaCaT cells [5]; 1 µg/mL LPS-stimulated HaCaT): 504.9 ± 49.39 pg/mL
Young's modulus (A549 cells; indentation depth 1 µm): 3.1 ± 0.08 kPa
Young's modulus (A549 cells; indentation depth 300 nm): 4.3 ± 0.07 kPa

QRLFQVKGRR [PBP10, QRLFQVKGRR]
viability at 24 h, 10 µg/mL [3]: 83 to 101%
IC50 (HaCaT cells [6]): > 50 µg/mL

lipoteichoic acid from Staphylococcus aureus [LTA]
IL-8 level (HaCaT cells [5]; 1 µg/mL LTA-stimulated HaCaT): 749.2 ± 55.81 pg/mL
